As a reminder, the refractive index is the speed of light in vacuum divided by its phase velocity in the sample.

The nature of series [1]: Boiling temperature at pressure P. To be noted: 101.3 kPa; Liquid; Ebulliometric method (Recirculating still).
Series [2] can be described thus: refractive index (Na D-line) (dimensionless). To be noted: 101.3 kPa, Liquid, Standard Abbe refractometry.

± gives the expanded uncertainty stated by the source.

On to `CC(=O)N(C)C` [N,N-dimethylethanamide], for which the “Boiling temperature at pressure P” value in series [1] is 165.62 ± 0.12 °C. Also, the refractive index in series [2] (298.15 K) is 1.43507 ± 0.00051.

Consider `CNC(C)=O` [N-methylacetamide], for which, in series [1], the “Boiling temperature at pressure P” value turned out to be 206.00 ± 0.12 °C. For the same compound, the refractive index in series [2] (301.15 K) is 1.42854 ± 0.00037.

On to `CC(C)c1ccccc1` [isopropylbenzene], for which the “Boiling temperature at pressure P” value in series [1] came to 152.29 ± 0.12 °C. Further, the refractive index in series [2] (298.15 K) amounted to 1.48829 ± 0.00037.

(Values after the NIST ThermoML archive (doi:10.1021/je800481n).)
